In patent US11697772B2, “Hydrotropic composition and its uses” (KEMIRA OYJ, priority 2017, dated 2023):
Values joined by “and” are separate entries in the source; they are usually repeats but may differ in a detail not shown here. Identical values can stand only once. Like-named read-outs stand apart in the source and are kept apart here.

Assays:
[1] = test system: Vibrio fischeri bacteria; assay: Vibrio fischeri toxicity assay (Microtox, decay of bioluminescence); type: cell-based
Procedure: The toxicities were determined by exposing Vibrio fischeri marine bacteria to aqueous solutions of ILs in differing concentrations. These bacteria have successfully been used for IL toxicity assessments in a myriad of studies. A recent comparison was performed between V. fischeri and three other standardized toxicity assays utilizing aquatic organisms, namely Daphnia magna (a fresh water crustacean), Selenastrum capricomutum (a freshwater algae) and Phaeodactylum tricomutum (a seawater algae).
The toxicity measurements were performed from an ecotoxicological point of view, since ILs are potentially hazardous for the environment and particularly for organisms in aquatic environments. Therefore, V. fischeri marine bacteria were utilized in these measurements. EC50 values were determined for seven water-soluble surface-active ILs. The ILs in this study included Ch-, GND-, TMG-based ILs with straight and branched (iso and neo forms) fatty acid chains, namely isostearates, decanotes and neodecanoates. As a reference, the toxicities of the sodium salts of these carboxylates were measured in order to obtain information on the effect of the cation on the toxicities of the ILs.
The toxicities of the ILs were defined by measuring their EC50 values using V. fischeri bacteria and Microtox luminometer/thermostate apparatus (Modern Water, USA). The response measured in this assay is the decay of bioluminescence produced by the bacteria. In short, the bioluminescence was measured before the exposure on the potentially toxic compound to determine the baseline luminescence. Consequently, the bacteria were exposed on minimum four differing toxicant concentrations in 2% (w/v) NaCl solution and the decay in the luminescence was recorded. Based on the concentration-dependent decay the EC50 value was defined. The toxicities were defined at set time intervals of 5 and 15 minutes. Two independent measurements were performed for each IL as duplicates.

[2] = Critical micelle concentration by optical pendant drop method (surface tension); type: physicochemical; settings: in water, superscript L logarithmic fitting, S sigmoidal fitting
[3] = Differential scanning calorimetry of IL/DPPC liposome mixtures (main phase transition); type: physicochemical; settings: for Loss of transition (concentration range within which the phase transition was no longer detected): DPPC liposomes 0.4 mM lipid, DSC heating scans
Procedure: The median effective concentrations (EC50) were determined for each IL. Since the toxic effect was thought to be caused by permeation of these surface-active molecules into the cell wall of the bacteria, related interactions of ILs with biomimetic liposomes were investigated utilizing differential scanning calorimetry (DSC). In DSC experiments, dipalmitoyl phosphatidylcholine (DPPC) liposomes were used as biomimicking membranes and the change in the main phase transition temperature (Tm) of the DPPC bilayer was followed, as a function of the IL concentrations. Such measurements could potentially offer more information on how the aforementioned ILs interact with the lipid bilayers. Lastly, the critical micelle concentrations (CMC) were defined for the ILs. Based on the CMCs, it can be defined if the ILs are dissolved as singly dispersed molecules or form a dispersion of spherical micelles, or other self-assembled structures (aggregates). Therefore, it can be determined if the interactions with the bacteria or liposomes take place between IL aggregates or singly dispersed IL molecules.
The DSC experiments were performed in order to find out the IL concentrations that induce the drift in the DPPC bilayer phase transition temperature. FIG. 3 illustrates the representative endotherms, which were recorded during the second heating scans. Since the heating and the cooling scans were performed three times, the second heating endotherm was selected as the representative one. […] If the baseline variations observed during the first heating scans were not observed on the following two scans and with other concentrations of the same ILs, they were regarded as artefacts. […] Cooling scans (not shown) were recorded in order to follow the stability of the system, however, no further analysis of the cooling scans was performed. Such heating and cooling scans are standard in DSC experiments.
The DSC results are discussed in more detail in the following text for each IL carboxylate group. Instead of referring to the peak areas, which define the energy taken by the transition (cal/° C./mol), corresponding peak heights are referred to in the text, since the relative changes in the peak heights are more easily observed by visual inspection.
A stock solution of DPPC was prepared by dissolving DPPC in chloroform. Required amount of the stock solution was transferred into a glass test tube and the chloroform was evaporated under airflow in order to form a thin film of DPPC on the walls of the tube. The air-dried lipid film was held under vacuum desiccator at least for 2 h to remove the residual solvent. The lipid was dispersed into water to obtain a 4.0 mM liposome stock. The dispersion was incubated in an ultrasonication water bath for 30 min at 60° C. facilitating the formation of multilamellar liposomes.
DSC was utilized in observing the changes induced by the ILs in the organization of the lipid bilayers. Here DPPC was used because the Tm of the bilayer is well recognized—approximately 41.3° C. […] There are two additional transitions observed for DPPC aqueous solutions; the subtransition at 21° C. and the pretransition at 36° C.

[4] = DPPC liposomes, earlier DSC investigation; cited from earlier work
[5] = Aliivibrio fischeri, 5 min, Vibrio fischeri, 5 min incubation, 2% (w/v) NaCl solution, read-out: EC50 5min
[6] = Aliivibrio fischeri, 0.25 h, Vibrio fischeri, 15 min incubation, 2% (w/v) NaCl solution, read-out: EC50 15min
[7] = Vibrio fischeri, 5 min incubation, 2% (w/v) NaCl solution, read-out: EC50 5min
[8] = Vibrio fischeri, 15 min incubation, 2% (w/v) NaCl solution, read-out: EC50 15min

Molecule | CMC (critical micelle concentration) [2] | EC50 [1, 7] [µM] | EC50 [1, 8] [µM] | Loss of transition (concentration range within which the phase transition was no longer detected) [3] [mM] | further results
CCCCCCCCCC(=O)[O-].[Na+] [Na decanoate, sodium decanoate, reference compound] | 22±3 mM and 22 ± 3^L mM |  |  |  | EC50 [1, 5]: 130 ± 20 µM; EC50 [1, 6]: 130 ± 20 µM; Tm of DPPC bilayer ([3]; 50 mM IL, 0.4 mM DPPC): above 35 °C
1,1,3,3-tetramethylguanidinium neodecanoate [TMG Neodecanoate] | 261 ± 11^L mM | 700 ± 70 | 650 ± 70 |  | 
CC(C)(C)CCCCCC(=O)[O-].[Na+] [Na Neodecanoate, sodium neodecanoate, reference compound] | 422 ± 38^L mM |  |  | 40 to 60 | EC50 ([1]; Aliivibrio fischeri, 5 min, read-out: EC50 5min): 500 ± 20 µM; EC50 ([1]; Aliivibrio fischeri, 0.25 h, read-out: EC50 15min): 473 ± 6 µM
CC(C)CCCCCCCCCCCCCCC(=O)[O-].[Na+] [Na Isostearate, sodium isostearate, reference compound] | 0.72 ± 0.06^L mM |  |  | 0.001 to 0.01 | EC50 [1, 5]: 110 ± 10 µM; EC50 [1, 6]: 81 ± 4 µM
guanidinium neodecanoate [GND Neodecanoate] | 118 ± 2^L mM | 730 ± 90 | 690 ± 70 | 15.0 to 25.0 | 
Guanidinium isostearate [GND Isostearate] | 0.31 ± 0.08^S mM | 98 ± 2 | 66 ± 5 | 0.5 to 1.0 | 
choline neodecanoate [Ch Neodecanoate] | 319 ± 13^L mM | 560 ± 60 | 520 ± 80 |  | highest concentration at which the transition peak was still observed ([3]; 0.4 mM DPPC, no higher concentrations measured): 60 mM
Choline isostearate [Ch Isostearate] | 0.50 ± 0.06^L mM | 130 ± 20 | 74 ± 5 | 0.5 to 1.0 | CMC (critical micelle concentration) ([2]; listed as Ch isostearate): ~0.5 mM
CCCCCCCCC(=O)[O-].C[N+](C)(C)CCO [Ch nonanoate] |  |  |  |  | highest concentration at which a peak for the Tm was still observed [4]: 50 mM
1,1,3,3-Tetramethylguanidinium isostearate [TMG Isostearate] | 0.30 ± 0.04^S mM | 94 ± 1 | 62 ± 5 | 0.5 to 1.0 | 
choline decanoate [Ch Decanoate] |  | 100 ± 20 | 100 ± 20 | 2.0 to 5.0 | concentrations at which the ILs affected the liposomes ([3]; DPPC liposomes 0.4 mM, DSC): 0.5 to 5 mM
